According to ChEMBL document CHEMBL1201862, “PubChem BioAssay data set” (2004):
Structures can show the parent of a compound that is named as a salt. Calls of active or inactive are those of the source.

How the values were obtained:
[1] = system: Vero; test: Vero cell viability after compound exposure – synthesized analogs, set II, cytotoxicity control for West Nile virus antiviral project, SAR follow-up (AID 2402); format: functional; details: Chlorocebus sabaeus
[2] = target: Mitogen-activated protein kinase 10 (Homo sapiens, UniProt P53779); test: Dose response biochemical screening assay for inhibitors of c-Jun N-Terminal Kinase 3 (JNK3). [Related pubchem assays: 746 ]
Sequence of Mitogen-activated protein kinase 10 (P53779 whole entry): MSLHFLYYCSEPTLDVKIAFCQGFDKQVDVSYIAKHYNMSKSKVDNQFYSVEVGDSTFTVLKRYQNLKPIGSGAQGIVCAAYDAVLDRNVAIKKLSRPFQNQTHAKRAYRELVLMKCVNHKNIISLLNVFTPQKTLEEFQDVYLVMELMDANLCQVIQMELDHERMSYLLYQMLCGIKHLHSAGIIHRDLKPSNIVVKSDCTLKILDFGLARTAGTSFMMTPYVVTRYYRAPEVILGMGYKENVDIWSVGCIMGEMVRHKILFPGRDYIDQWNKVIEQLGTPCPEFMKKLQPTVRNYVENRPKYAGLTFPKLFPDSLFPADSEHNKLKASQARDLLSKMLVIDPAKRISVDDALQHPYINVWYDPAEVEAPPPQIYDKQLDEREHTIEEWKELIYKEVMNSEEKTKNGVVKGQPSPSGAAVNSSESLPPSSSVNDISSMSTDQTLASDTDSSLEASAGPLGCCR

[3] = target: Protein Tat (Human immunodeficiency virus type 1 group M subtype B (isolate HXB2)(HIV-1), UniProt P04608); format: functional;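 note: tat binding to TAR RNA read out by fluorescence polarization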
Sequence of Protein Tat (P04608 whole entry): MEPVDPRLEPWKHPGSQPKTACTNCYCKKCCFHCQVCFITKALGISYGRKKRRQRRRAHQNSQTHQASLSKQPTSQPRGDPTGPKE

[4] = viability loss in THP-1 monocytes – THP-1 cells, cytotoxicity control for Vif-APOBEC3G degradation inhibitor project, dose response (AID 1117359); format: functional; details: THP-1
[5] = target: T1, Replicative DNA helicase DnaB (Mycobacterium tuberculosis, UniProt P9WMR3); test: DnaB intein splicing inhibitors, dose response, biochemical, cell-free fluorescence (AID 449749); format: functional
T1 sequence (P9WMR3 whole entry): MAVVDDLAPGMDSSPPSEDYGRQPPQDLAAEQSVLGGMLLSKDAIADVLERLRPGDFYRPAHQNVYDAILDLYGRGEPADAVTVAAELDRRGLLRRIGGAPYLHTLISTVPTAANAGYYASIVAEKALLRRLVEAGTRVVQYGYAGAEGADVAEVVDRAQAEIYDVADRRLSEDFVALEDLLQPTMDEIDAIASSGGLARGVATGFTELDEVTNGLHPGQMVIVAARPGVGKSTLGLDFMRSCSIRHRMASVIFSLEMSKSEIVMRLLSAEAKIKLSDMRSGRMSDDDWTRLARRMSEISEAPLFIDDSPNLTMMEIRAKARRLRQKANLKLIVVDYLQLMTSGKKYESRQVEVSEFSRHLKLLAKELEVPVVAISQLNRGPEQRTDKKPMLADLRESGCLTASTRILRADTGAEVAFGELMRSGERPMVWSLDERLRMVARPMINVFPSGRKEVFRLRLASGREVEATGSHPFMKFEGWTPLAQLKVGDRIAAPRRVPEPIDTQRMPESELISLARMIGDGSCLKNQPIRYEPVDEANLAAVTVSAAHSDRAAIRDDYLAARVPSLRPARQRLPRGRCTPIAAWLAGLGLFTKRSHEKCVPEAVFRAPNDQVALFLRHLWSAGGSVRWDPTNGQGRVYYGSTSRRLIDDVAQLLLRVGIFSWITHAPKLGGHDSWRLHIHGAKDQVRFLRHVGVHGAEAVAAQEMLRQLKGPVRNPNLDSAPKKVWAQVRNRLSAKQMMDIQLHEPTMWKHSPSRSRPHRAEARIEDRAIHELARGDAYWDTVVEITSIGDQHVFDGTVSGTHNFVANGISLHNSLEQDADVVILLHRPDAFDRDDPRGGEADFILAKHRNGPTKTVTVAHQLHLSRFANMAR

[6] = target: T2, Protein RecA (Mycobacterium tuberculosis, UniProt P9WHJ3); test: Fluorescence Cell-Free Homogeneous Dose Retest to Identify Inhibitors of RecA-Intein Splicing Activity. [Related pubchem assays (depositor defined):AID2097, AID2223, AID489010, AID492950]; format: functional
T2 sequence (P9WHJ3 whole entry): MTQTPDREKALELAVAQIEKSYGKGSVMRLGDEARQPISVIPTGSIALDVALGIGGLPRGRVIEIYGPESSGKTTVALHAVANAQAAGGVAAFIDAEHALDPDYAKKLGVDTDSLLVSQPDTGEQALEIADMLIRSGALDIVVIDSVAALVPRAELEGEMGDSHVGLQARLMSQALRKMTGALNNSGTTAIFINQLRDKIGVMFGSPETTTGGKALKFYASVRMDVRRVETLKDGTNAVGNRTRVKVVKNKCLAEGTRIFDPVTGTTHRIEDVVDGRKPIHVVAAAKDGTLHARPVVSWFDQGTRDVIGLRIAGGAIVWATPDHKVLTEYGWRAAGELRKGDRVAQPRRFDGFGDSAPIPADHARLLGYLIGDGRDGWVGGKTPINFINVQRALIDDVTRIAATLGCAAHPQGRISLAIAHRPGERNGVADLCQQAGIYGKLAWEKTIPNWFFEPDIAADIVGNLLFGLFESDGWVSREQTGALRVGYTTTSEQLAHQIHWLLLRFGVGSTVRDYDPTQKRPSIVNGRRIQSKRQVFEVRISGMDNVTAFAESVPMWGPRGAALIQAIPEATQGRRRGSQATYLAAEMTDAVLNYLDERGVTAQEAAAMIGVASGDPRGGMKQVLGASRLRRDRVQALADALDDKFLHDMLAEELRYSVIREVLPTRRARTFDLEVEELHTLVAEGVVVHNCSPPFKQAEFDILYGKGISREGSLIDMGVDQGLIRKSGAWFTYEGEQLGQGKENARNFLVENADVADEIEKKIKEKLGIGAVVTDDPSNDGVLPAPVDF

[7] = Luminescent dose response cell-based high throughput screening assay for inhibitors of the Janus kinase 2 mutant JAK2V617F. [Related pubchem assays: 1446 (Primary screen.), 1521 (Confirmation assay.), 1486 (Counter screen.)]; format: functional
[8] = target: T3, Mannose-6-phosphate isomerase (Homo sapiens, UniProt P34949); test: MPI inhibition at elevated mannose 6-phosphate – biochemical, fluorescence intensity, high mannose 6-phosphate, primary screen (AID 1220)
T3 sequence (P34949 whole entry): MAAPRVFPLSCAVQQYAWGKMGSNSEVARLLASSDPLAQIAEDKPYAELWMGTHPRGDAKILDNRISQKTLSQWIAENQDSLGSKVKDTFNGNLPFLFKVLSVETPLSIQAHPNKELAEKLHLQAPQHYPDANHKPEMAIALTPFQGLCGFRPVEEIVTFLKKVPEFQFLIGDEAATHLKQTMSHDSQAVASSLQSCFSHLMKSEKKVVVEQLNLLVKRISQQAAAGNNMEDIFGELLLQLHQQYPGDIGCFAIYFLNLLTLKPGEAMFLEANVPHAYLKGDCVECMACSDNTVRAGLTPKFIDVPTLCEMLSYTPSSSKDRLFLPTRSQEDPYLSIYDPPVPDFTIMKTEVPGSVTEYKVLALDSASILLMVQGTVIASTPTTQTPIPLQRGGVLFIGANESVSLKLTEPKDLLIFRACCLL

[9] = NIH-3T3 fibroblast cytotoxicity, dose response, cytotoxicity control, cell-based, fluorescence, Alamar Blue, secondary assay (AID 2327); format: functional;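 note: NIH-3T3 mouse fibroblasts cultured with fluconazole at 8 µg/mL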
[10] = target: T4, Histone-lysine N-methyltransferase NSD2 (Homo sapiens, UniProt O96028); format: biochemical
T4 sequence (O96028 whole entry): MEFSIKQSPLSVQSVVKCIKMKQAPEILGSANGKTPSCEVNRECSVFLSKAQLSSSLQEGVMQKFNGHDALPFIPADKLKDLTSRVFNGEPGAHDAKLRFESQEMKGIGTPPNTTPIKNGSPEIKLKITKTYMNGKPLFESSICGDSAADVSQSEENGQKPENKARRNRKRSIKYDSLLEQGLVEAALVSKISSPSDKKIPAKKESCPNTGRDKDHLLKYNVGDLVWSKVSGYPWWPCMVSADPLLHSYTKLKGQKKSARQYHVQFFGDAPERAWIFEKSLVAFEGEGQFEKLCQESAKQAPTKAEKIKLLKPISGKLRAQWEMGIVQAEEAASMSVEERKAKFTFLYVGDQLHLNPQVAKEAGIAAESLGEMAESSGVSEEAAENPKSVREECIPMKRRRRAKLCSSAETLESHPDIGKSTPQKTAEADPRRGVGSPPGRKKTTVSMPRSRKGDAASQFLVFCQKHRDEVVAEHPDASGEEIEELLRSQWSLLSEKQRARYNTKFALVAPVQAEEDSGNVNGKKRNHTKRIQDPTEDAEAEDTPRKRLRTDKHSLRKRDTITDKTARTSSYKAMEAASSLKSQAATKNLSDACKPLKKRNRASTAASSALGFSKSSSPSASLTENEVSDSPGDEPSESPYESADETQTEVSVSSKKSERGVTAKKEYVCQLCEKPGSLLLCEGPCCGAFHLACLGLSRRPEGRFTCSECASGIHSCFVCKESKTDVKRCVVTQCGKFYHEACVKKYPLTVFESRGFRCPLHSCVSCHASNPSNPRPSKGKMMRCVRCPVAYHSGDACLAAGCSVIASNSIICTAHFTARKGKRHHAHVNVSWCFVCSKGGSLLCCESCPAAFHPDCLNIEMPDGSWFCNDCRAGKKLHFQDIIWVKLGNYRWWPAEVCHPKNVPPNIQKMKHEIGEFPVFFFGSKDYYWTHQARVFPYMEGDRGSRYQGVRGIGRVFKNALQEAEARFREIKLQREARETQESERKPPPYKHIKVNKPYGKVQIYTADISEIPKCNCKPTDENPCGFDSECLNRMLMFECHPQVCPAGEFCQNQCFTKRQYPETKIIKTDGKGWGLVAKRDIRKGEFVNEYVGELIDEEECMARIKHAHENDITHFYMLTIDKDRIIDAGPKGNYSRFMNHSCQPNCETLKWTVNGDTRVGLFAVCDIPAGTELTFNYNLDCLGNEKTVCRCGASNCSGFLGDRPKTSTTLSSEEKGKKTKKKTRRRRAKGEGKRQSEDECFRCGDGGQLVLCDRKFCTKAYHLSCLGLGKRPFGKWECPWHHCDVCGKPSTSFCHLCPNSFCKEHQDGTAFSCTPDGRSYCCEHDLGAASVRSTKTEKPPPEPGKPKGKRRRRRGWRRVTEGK

[11] = target: Induced myeloid leukemia cell differentiation protein Mcl-1 (Homo sapiens, UniProt Q07820); format: functional
Sequence of Induced myeloid leukemia cell differentiation protein Mcl-1 (Q07820 whole entry): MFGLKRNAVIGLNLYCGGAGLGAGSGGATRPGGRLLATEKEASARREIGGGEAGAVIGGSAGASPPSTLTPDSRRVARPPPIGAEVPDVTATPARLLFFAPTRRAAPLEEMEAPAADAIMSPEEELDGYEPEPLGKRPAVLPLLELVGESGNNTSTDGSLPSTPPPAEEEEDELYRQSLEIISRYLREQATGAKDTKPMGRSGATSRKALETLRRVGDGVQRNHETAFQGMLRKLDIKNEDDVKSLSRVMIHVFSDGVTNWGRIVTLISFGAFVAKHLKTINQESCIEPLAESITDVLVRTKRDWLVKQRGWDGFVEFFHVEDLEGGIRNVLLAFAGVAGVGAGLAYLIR

[12] = fluconazole-exposed Candida albicans growth modulators – fluorescence, retest, confirmation (AID 2467); format: functional, cell-based
[13] = cells; format: functional, cell-based; details: INS-1E
[14] = IC50 of insulin release inhibition, rat insulinoma INS-1E line, 5 mM glucose, cell-based (AID 1117331); format: functional
[15] = Potency on glucagon-like peptide 1 release, dose-response in NCI-H716 cell line, half maximal inhibitory concentration (AID 1117344); format: functional, cell-based
[16] = glucagon-like peptide-1 release potency in STC-1, concentration-response, half-maximal inhibitory concentration in the STC-1 line (AID 1117345); format: functional, cell-based

## OC1c2cc(Br)ccc2N=C2CCCCN21 (stereo unspecified)
[1]
  CC50: > 200 µM (active)

## Cc1ccccc1-n1nc(C)c2cc(C(=O)N3CCOCC3)sc21
[2]
  IC50: > 93.1 µM (not active)

## CC1=CC(C)(C)N2C(=O)/C(=N/c3ccc(O)cc3)c3cccc1c32
[3]
  IC50: > 100 µM (active)
[4]
  CC50: 9.38 µM (active)
[5]
  AC50: > 380 µM (inactive)
[6]
  EC50: > 380 µM (inactive)

## Cc1c(Cc2ccccc2)c(=O)oc2c(O)c(O)ccc12
[7]
  IC50: 2.67 µM (active)
[8]
  IC50: 29.6 µM (active)
[9]
  EC50: 18.7 µM (active)
[10]
  AC50: > 20 µM (inactive)
[11]
  IC50: 11.7 µM (not active)
[12]
  EC50: 2.73 µM (active)

## NC[C@H]1CC[C@H](C(=O)Oc2ccc(CCC(=O)O)cc2)CC1 [CETRAXATE HYDROCHLORIDE]
[13]
  IC50: > 33.3 µM (inactive)
[14]
  IC50: > 33.3 µM (inactive)

## CCCCC(CC)CN1CN(CC(CC)CCCC)CC(C)(N)C1 (stereo unspecified) [HEXETIDINE]
[15]
  IC50: 36.4 µM (inactive)
[16]
  IC50: 26.6 µM (inactive)
